Marks after values point to notes of the source that are not given here.
Test system: apoptotic sunburn cells in the epidermis of SKH-1 mice
Test: UVB-induced apoptotic sunburn cells in the epidermis of SKH-1 mice after topical application
Format: in vivo, mouse
Settings: for activity in stimulating UVB-induced apoptosis in mouse skin, compared with caffeine: first study of compounds structurally related to caffeine, given after UVB; for Percent Apoptotic Sunburn Cells: 6.2 μmole in 100 μL acetone right after UVB 30 mJ/cm^2 and at 30 and 120 min, 6 h after UVB; for activity in stimulating UVB-induced apoptosis, compared with caffeine: similar study, acetone:water (90:10) as vehicle (Table 1)
Experimental: Chemicals and Animals. […] Female SKH-1 hairless mice (6 to 7 weeks old) were purchased from the Charles River Breeding Laboratories, and the animals were kept in an animal facility for at least one week before use at 7 to 8 weeks of age. Mice were given water and PURINA® Laboratory CHOW® 5001 diet from Ralston-Purina (St. […] For the analysis conducted herein, 5 mice were used per group. Treatment of Mice with UVB. […] The radiation was further calibrated with a model IL-1700 research radiometer/photometer (International Light, Newburyport, Mass.). Measurement of apoptotic sunburn cells. Identification of apoptoic sunburn cells was based morphologically on cell shrinkage and nuclear condensation due to fragmentation of the cells. […] Six hours after UVB, the animals were sacrificed and apoptotic sunburn cells in the epidermis were determined morphologically. […] Six hours after UVB, the animals were sacrificed and apoptotic sunburn cells in the epidermis were determined morphologically. […] Acetone Formulation. […] Six hours after UVB, the animals were sacrificed and apoptotic sunburn cells in the epidermis were determined morphologically. […] […] Formulations. […] Six hours after UVB the animals were sacrificed and apoptotic sunburn cells in the epidermis were determined morphologically. […] Six hours after UVB the animals were sacrificed and apoptotic sunburn cells in the epidermis were determined morphologically.

[1] = Table 1, vs acetone group, 6.2 μmole x3 after UVB 30 mJ/cm^2, 6 h

## Cn1c(=O)c2c(nc(Br)n2C)n(C)c1=O [8-bromocaffeine]
  activity in stimulating UVB-induced apoptosis in mouse skin, compared with caffeine: little or no activity

## Cn1c(=O)c2ncn(C)c2n(C)c1=O [1,3,9-trimethylxanthine]
  activity in stimulating UVB-induced apoptosis in mouse skin, compared with caffeine: somewhat less active than caffeine

## Cn1c(=O)c2[nH]cnc2n(C)c1=O [Theophylline, 1,3-dimethylxanthine]
Mean ± S.E.
  Percent Apoptotic Sunburn Cells: 0.703 ± 0.171^b %
[1]
  % Induction: 245%
  activity in stimulating UVB-induced apoptosis in mouse skin, compared with caffeine: as active as caffeine
  activity in stimulating UVB-induced apoptosis, compared with caffeine: somewhat more active than caffeine

## CC(=O)CCCCn1c(=O)c2c(ncn2C)n(C)c1=O [Pentoxifylline, pentoxifylline]
Mean ± S.E.
  Percent Apoptotic Sunburn Cells: 0.318 ± 0.068^ %
[1]
  % Induction: 56%
  activity in stimulating UVB-induced apoptosis in mouse skin, compared with caffeine: little or no activity
  activity in stimulating UVB-induced apoptosis, compared with caffeine: about half as active as caffeine

## Cn1c(=O)c2c(nc(Cl)n2C)n(C)c1=O [8-chlorocaffeine]
  activity in stimulating UVB-induced apoptosis in mouse skin, compared with caffeine: little or no activity

## O=c1[nH]c(=O)c2[nH]cnc2[nH]1 [Xanthine, xanthine]
Mean ± S.E.
  Percent Apoptotic Sunburn Cells: 0.221 ± 0.046^ %
[1]
  % Induction: 8%
  activity in stimulating UVB-induced apoptosis in mouse skin, compared with caffeine: little or no activity

## Cn1c(=O)c2c(ncn2C)n(C)c1=O [Caffeine Citrated, citrated caffeine]
Mean ± S.E.
  Percent Apoptotic Sunburn Cells: 0.757 ± 0.199^b %
[1]
  % Induction: 271%

## O=C([O-])c1ccccc1.[Na+] [Sodium benzoate, sodium benzoate]
6.2 μmole (each) in 100 μL acetone:water (9:1) immediately after UVB 30 mJ/cm^2 and at 30 and 120 min, 6 h, mean ± S.E.
  Percent Sunburn Cells, UVB: 0.27 ± 0.08%
DERMABASE vehicle, equimolar amounts (Table 4)
  enhancement of UVB-induced apoptosis in the epidermis, applied in DERMABASE: inactive
Table 2, vs acetone, 6.2 μmole in acetone:water (9:1)
  % Induction: 29%

## Cn1cnc2c1c(=O)[nH]c(=O)n2C [Theobromine, 3,7-dimethylxanthine]
Mean ± S.E.
  Percent Apoptotic Sunburn Cells: 0.358 ± 0.064^ %
[1]
  % Induction: 75%
  activity in stimulating UVB-induced apoptosis in mouse skin, compared with caffeine: little or no activity
  activity in stimulating UVB-induced apoptosis, compared with caffeine: about half as active as caffeine

## Cn1c(=O)[nH]c2ncn(C)c2c1=O [1,7-dimethylxanthine]
  activity in stimulating UVB-induced apoptosis in mouse skin, compared with caffeine: as active as caffeine

From US8029770B2 (Rutgers, The State University, priority 2003, dated 2011)
